# Residues, ends and D or L forms follow the SMILES beside them. *: point of attachment. DOTA = O=C(O)CN1CCN(CC(=O)O)CCN(CC(=O)*)CCN(CC(=O)O)CC1; X1 = Cc1ccc(CCCC(=O)NCCOCCOCCOCCOCC(=O)*)cc1; βAla = NCCC(=O)O
# How the values were obtained:
# [1] = biological target: T1, human NTS1R (Homo sapiens, UniProt P30989); assay: Competitive binding against [125I]I-Tyr3-NT in WiDr cell membrane homogenates; conditions: displacement of [125I]I-Tyr3-NT, WiDr cell membranes, mean ± sd, n = 3
# T1 construct: in membrane homogenates obtained from WiDr cells; endogenous in cells; host or cells: WiDr cells (membrane homogenates)
# T1 sequence (P30989 whole entry): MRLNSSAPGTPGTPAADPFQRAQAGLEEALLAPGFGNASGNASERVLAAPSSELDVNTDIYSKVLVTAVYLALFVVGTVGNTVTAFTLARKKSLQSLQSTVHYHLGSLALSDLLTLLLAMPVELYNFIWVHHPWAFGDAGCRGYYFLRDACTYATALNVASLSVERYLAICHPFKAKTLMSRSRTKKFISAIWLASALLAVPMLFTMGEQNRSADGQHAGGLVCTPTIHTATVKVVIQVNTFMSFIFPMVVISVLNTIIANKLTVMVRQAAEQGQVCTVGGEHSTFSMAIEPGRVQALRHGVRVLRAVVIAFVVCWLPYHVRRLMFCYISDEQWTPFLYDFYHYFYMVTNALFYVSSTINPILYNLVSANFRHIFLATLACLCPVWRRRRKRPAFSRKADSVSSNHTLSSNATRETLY
# Description: The affinity of metal-free D[…] and metal-tagged [^natGa]Ga/[^natIn]In/[^natLu]Lu-D[…] (Supplementary Materials) for the human NTS1R was evaluated via competitive binding assays. These assays were performed using the [^125I]I-Tyr^3-NT radioligand in membrane homogenates obtained from WiDr cells, which were stored at -80 °C in 100 μL aliquots of Tris/EDTA buffer (10 mM Tris, 0.1 mM EDTA, pH 7.4). On the day of the experiment, the membrane homogenates were thawed, combined, and diluted in ice-cold binding buffer (BB: 50 mM HEPES, 5.5 mM MgCl2, 0.1 mg/mL bacitracin, 1% w/v BSA, pH 7.4). Each of the above ligands (including NT as a control) was incubated in triplicate at increasing concentrations (ranging from 10^-13 M to 10^-6 M in BB, 30 μL) with [^125I]I-Tyr^3-NT (214 pM in 70 μL BB) and membrane homogenate (300 μL in BB) for 1 h at 22 °C in an Incubator-Orbital Shaker unit (MPM Instr. SrI, Bernareggio, Milan, Italy). […] The filters were washed with ice-cold washing buffer (WB, 10 mM HEPES pH 7.4, 150 mM NaCl), collected individually, placed in separate RIA tubes, and measured for their radioactivity content in a gamma counter (automated multi-sample well-type instrument with a NaI(Tl) 3'' crystal, Canberra Packard Cobra^TM Quantum U5003/1, Auto-Gamma® counting system; Canberra Packard Central Europe GmbH, Schwadorf, Austria). […]
# [2] = in vivo; parameters: species or system mice; conditions: male, SCID, mouse, iv, total radioactivity; for tissue uptake at 48 h / tissue uptake at 72 h: Biodistribution
# Description: The distribution of [^67Ga]Ga/[^111In]In/[^177Lu]Lu-DT14D was investigated in male severe combined immunodeficiency (SCID) mice (49 mice in total, 6 weeks of age on arrival date, 22 ± 4 g, NCSR “Demokritos” Animal House, Athens, Greece) bearing NTS1R-positive AsPC-1 xenografts in their flanks. For xenograft induction, suspensions of freshly harvested AsPC-1 cells (5 × 10^6 cells in 150 µL sterile PBS) were subcutaneously injected into the mice’s flanks. The animals were kept under aseptic conditions and 4 weeks later developed well palpable masses at the inoculation sites (100 ± 50 mg) and biodistribution was conducted. On the day of the experiment, the animals received a bolus (100 μL, in vehicle: saline/EtOH 9/1 v/v) containing the radioligand via the tail vein. The following groups of four animals per time point, per treatment, were included per radioligand (the 4 h block groups comprised 3 animals instead) including the respective (radio)ligand amounts injected: i. 78–91 kBq [^67Ga]Ga-DT14D corresponding to 7–17 pmol DT14D at 1 and 4 h pi plus 4 h block (coinjection with 100 µg NT); ii. 74–92 kBq [^111In]In-DT14D corresponding to 20–25 pmol at 4 h (controls), 4 h pi (Entresto®; animals receiving a slurry of 12 mg/200 µL Entresto® oral gavage 30 min in advance) and 4 h block (coinjection with 100 µg NT); 24 h pi (including both controls and Entresto® mice groups); and iii. 730 kBq [^177Lu]Lu-DT14D corresponding to 40 pmol DT14D at 4, 24, 48, and 72 h pi plus 4 h block (co-injection with 100 µg NT). The animals were euthanized at predetermined time intervals, dissected and blood samples, organs of interest, and tumors were collected, weighed, and counted in the gamma counter. Biodistribution data were calculated as percent of the injected activity per gram tissue (%IA/g) with the aid of suitable standards of the administered activity. Results as the mean %IA/g values ± sd were obtained and statistical analysis was performed with PRISM^TM GraphPad—10.2 Software (San Diego, CA/USA), applying 2-way ANOVA with Tukey’s post hoc analysis, or, in the case of two variables, Šídák’s multiple comparisons test was adopted; differences with p < 0.05 were considered as statistically significant.
# [3] = 730 kBq, Tumor/Intestines ratio
smiles,measurement,setting,value
"CC[C@H](C)[C@H](NC(=O)[C@H](Cc1ccc(O)cc1)NC(=O)[C@@H]1CCCN1C(=O)[C@H](CCCNC(=N)N)NC(=O)[C@H](CCCNC(=N)N)NC(=O)[C@H](CCCCNC(=O)COCCOCCOCCOCCNC(=O)CCCc1ccc(C)cc1)NC(=O)CCNC(=O)CCNC(=O)CCNC(=O)CN1CCN(CC(=O)O)CCN(CC(=O)O)CCN(CC(=O)O)CC1)C(=O)N[C@@H](CC(C)C)C(=O)O [DT14D, DOTA-βAla-βAla-βAla-Lys(MPBA-PEG4)^7-Arg-Arg-Pro-Tyr-Ile-Leu-OH] ({DOTA-βAla-βAla-βAla}-K(X1)RRPYIL-OH)",IC50,[1],2.56 ± 0.26 nM
"CC[C@H](C)[C@H](NC(=O)[C@H](Cc1ccc(O)cc1)NC(=O)[C@@H]1CCCN1C(=O)[C@H](CCCNC(=N)N)NC(=O)[C@H](CCCNC(=N)N)NC(=O)[C@H](CCCCNC(=O)COCCOCCOCCOCCNC(=O)CCCc1ccc(C)cc1)NC(=O)CCNC(=O)CCNC(=O)CCNC(=O)CN1CCN(CC(=O)O)CCN(CC(=O)O)CCN(CC(=O)O)CC1)C(=O)N[C@@H](CC(C)C)C(=O)O [[^177Lu]Lu-DT14D, metal not drawn] ({DOTA-βAla-βAla-βAla}-K(X1)RRPYIL-OH)",tissue to tissue ratio at 72 h,"[2]; 40 pmol, Tumor/Blood ratio",29.8 ± 7.43
same,tissue to tissue ratio at 48 h,"[2]; 40 pmol, Tumor/Liver ratio",1.63 ± 0.14
same,tissue to tissue ratio at 72 h,"[2]; 40 pmol, Tumor/Liver ratio",1.44 ± 0.19
same,tissue to tissue ratio at 48 h,"[2]; 40 pmol, Tumor/Lungs ratio",11.4 ± 1
same,tissue to tissue ratio at 72 h,"[2]; 40 pmol, Tumor/Lungs ratio",9.66 ± 1.43
same,tissue to tissue ratio at 48 h,"[2]; 40 pmol, Tumor/Pancreas ratio",20.4 ± 1.96
same,tissue to tissue ratio at 72 h,"[2]; 40 pmol, Tumor/Pancreas ratio",16.2 ± 5.04
same,tissue uptake at 48 h,"[2]; 730 kBq, AsPC-1 Tumor",1.56 ± 0.17 %ID/g
same,tissue uptake at 72 h,"[2]; 730 kBq, AsPC-1 Tumor",1.24 ± 0.2 %ID/g
same,tissue uptake at 48 h,"[2]; 730 kBq, Blood",0.05 ± 0.01 %ID/g
same,tissue uptake at 72 h,"[2]; 730 kBq, Blood",0.04 %ID/g
same,tissue uptake at 48 h,"[2]; 730 kBq, Femur",0.38 ± 0.03 %ID/g
same,tissue uptake at 72 h,"[2]; 730 kBq, Femur",0.35 ± 0.03 %ID/g
same,tissue uptake at 48 h,"[2]; 730 kBq, Heart",0.07 ± 0.01 %ID/g
same,tissue uptake at 72 h,"[2]; 730 kBq, Heart",0.06 ± 0.01 %ID/g
same,tissue uptake at 48 h,"[2]; 730 kBq, Intestines",0.36 ± 0.01 %ID/g
same,tissue uptake at 72 h,"[2]; 730 kBq, Intestines",0.27 ± 0.02 %ID/g
same,tissue uptake at 48 h,"[2]; 730 kBq, Kidneys",0.88 ± 0.06 %ID/g
same,tissue uptake at 72 h,"[2]; 730 kBq, Kidneys",0.57 ± 0.15 %ID/g
same,tissue uptake at 48 h,"[2]; 730 kBq, Liver",0.96 ± 0.05 %ID/g
same,tissue uptake at 72 h,"[2]; 730 kBq, Liver",0.86 ± 0.1 %ID/g
same,tissue uptake at 48 h,"[2]; 730 kBq, Lungs",0.14 %ID/g
same,tissue uptake at 72 h,"[2]; 730 kBq, Lungs",0.13 ± 0.04 %ID/g
same,tissue uptake at 48 h,"[2]; 730 kBq, Muscle",0.04 ± 0.01 %ID/g
same,tissue uptake at 72 h,"[2]; 730 kBq, Muscle",0.04 ± 0.02 %ID/g
same,tissue uptake at 48 h,"[2]; 730 kBq, Pancreas",0.07 ± 0.01 %ID/g
same,tissue uptake at 72 h,"[2]; 730 kBq, Pancreas",0.08 ± 0.02 %ID/g
same,tissue uptake at 48 h,"[2]; 730 kBq, Spleen",1.6 ± 0.58 %ID/g
same,tissue uptake at 72 h,"[2]; 730 kBq, Spleen",1.49 ± 0.51 %ID/g
same,tissue uptake at 48 h,"[2]; 730 kBq, Stomach",0.07 ± 0.01 %ID/g
same,tissue uptake at 72 h,"[2]; 730 kBq, Stomach",0.04 ± 0.01 %ID/g
same,tissue to tissue ratio at 48 h,"[2]; 730 kBq, Tumor/Blood ratio",30.9 ± 3.67
same,tissue to tissue ratio at 48 h,"[2]; 730 kBq, Tumor/Heart ratio",23 ± 2.32
same,tissue to tissue ratio at 72 h,"[2]; 730 kBq, Tumor/Heart ratio",20.1 ± 3.03
same,tissue to tissue ratio at 48 h,[2]; [3],4.28 ± 0.33
same,tissue to tissue ratio at 72 h,[2]; [3],4.65 ± 0.91
same,tissue to tissue ratio at 48 h,"[2]; 730 kBq, Tumor/Kidneys ratio",1.78 ± 0.3
same,tissue to tissue ratio at 72 h,"[2]; 730 kBq, Tumor/Kidneys ratio",2.26 ± 0.49
same,tissue to tissue ratio at 48 h,"[2]; 730 kBq, Tumor/Muscle ratio",39.2 ± 5.49
same,tissue to tissue ratio at 72 h,"[2]; 730 kBq, Tumor/Muscle ratio",36.1 ± 14.6
same,tissue to tissue ratio at 48 h,"[2]; 730 kBq, Tumor/Spleen ratio",1.1 ± 0.51
same,tissue to tissue ratio at 72 h,"[2]; 730 kBq, Tumor/Spleen ratio",0.89 ± 0.25
same,tissue to tissue ratio at 48 h,"[2]; 730 kBq, Tumor/Stomach ratio",23.8 ± 2.17
same,tissue to tissue ratio at 72 h,"[2]; 730 kBq, Tumor/Stomach ratio",26.6 ± 5.58

# Source: publication PMC11944670, “Reshaping [^99mTc]Tc-DT11 to DT14D Tagged with Trivalent Radiometals for NTS1R-Positive Cancer Theranostics” (Pharmaceutics, 2025)
